Reference: patent US12522615B2, “Macrocyclic compounds and derivatives as EGFR inhibitors” (Boehringer Ingelheim International GmbH, priority 2019, dated 2026)
pIC50: −log10 of the molar value. Read-outs that look alike come from different tables or passages of the source.

Assays:
EGFR del19 T790M C797S = EGFR del19 T790M C797S (Homo sapiens, UniProt P00533, C797S/T790M, form not given); test: pEGFR assay: phosphorylation of EGFR at Tyr1068 in Ba/F3 cells (AlphaScreen Surefire); assay type: cell-based; settings: 4 h
Description: Transduced cells were selected using puromycin. Following selection, IL-3 was withdrawn and IL-3 independent cells cultured. p-EGFR Tyr1068 was determined using the AlphaScreen Surefire pEGF Receptor (Tyr1068) Assay (PerkinElmer, TGRERS). […] Subsequently, 60.000 cells/well in 60 μL were added. Cells were incubated with compound for 4 h at 37° C. […] The mixture was incubated at room temperature with shaking (700 rpm) for 20 min. After centrifugation, 4 μL of the lysate were transferred to Proxiplates. […] Plates were shaken for 1 min (1400 rpm) and incubated for 2 h at room temperature in the dark.

[1] = target: EGFR (mutated) 695-1022, T790M, C797S, L858R (Homo sapiens (Human), UniProt P00533, C797S/L858R/T790M); test: Biochemical EGFR inhibition assay (poly-GT substrate phosphorylation, TR-FRET LANCE Ultra)
Description: (§1) Initially, the inhibitory effect of compounds according to the invention is measured in biochemical assays which measure the phosphorylation activity of EGFR enzyme forms on poly-GT substrate in the presence of different concentrations of ATP (5 μM and 100 μM final assay concentration).
(§2) The following enzyme forms of EGFR are representative examples that can be used in these assays at the given concentrations:
(§3) For the chosen highest assay concentration of 100 μM, 150 nL of compound solution is transferred from a 10 mM DMSO compound stock solution. A series of eleven fivefold dilutions per compound is transferred to the assay plate, compound dilutions are tested in duplicates. DMSO is added as backfill to a total volume of 150 nL. The assay runs on a fully automated robotic system.
(§4) 5 μL of EGFR enzyme form in assay buffer (50 mM HEPES pH 7.3, 10 mM MgCl2, 1 mM EGTA, 0.01% Tween 20, 2 mM DTT) are dispensed into columns 1-23, than 5 μL of ATP and ULight-poly-GT substrate (PerkinElmer; TRF0100-M) mix in assay buffer is added to all wells (final assay concentration of the ULight-poly-GT substrate 200 nM). Each of the different EGFR enzyme form assays is available at low ATP (final assay concentration 5 μM) and high ATP levels (final assay concentration 100 μM). After 90 minutes incubation at room temperature 5 μL EDTA (final assay concentration 50 mM) and LANCE Eu-anti-P-Tyr (PT66) antibody (PerkinElmer, AD0069) (final assay concentration 6 nM) mix are added to stop the reaction and start the binding of the antibody. […] Each plate contains 16 wells of a negative control (diluted DMSO instead of test compound; w EGFR enzyme form; column 23) and 16 wells of a positive control (diluted DMSO instead of test compound; w/o EGFR enzyme form; column 24). Negative and positive control values are used for normalization and IC50 values are calculated and analysed using a 4 parametric logistic model.
(§5) These biochemical EGFR enzyme form compound dose-response assays quantify the kinase activity via phosphorylation of a tagged poly-GT substrate. The results of the assay are provided as IC50 values.

EGFR wt = EGFR wt (Homo sapiens (Human), UniProt P00533); test: as above
Description: as §1, §2, §3, §4, §5

[2] = test system: Ba/F3 cells EGFR-indep. + IL-3; test: Ba/F3 proliferation assay (CellTiter-Glo viability); assay type: cell-based, murine; settings: Mus musculus, BaF3, 72 h
Description: (§6) Plasmids containing EGFR mutants were obtained from GeneScript. To generate EGFR-dependent Ba/F3 models, Ba/F3 cells were transduced with retroviruses containing vectors that harbor EGFR isoforms. Platinum-E cells (Cell Biolabs) were used for retrovirus packaging. Retrovirus was added to Ba/F3 cells. To ensure infection, 4 μg/mL polybrene was added and cells were spinfected. Infection efficiency was confirmed by measuring GFP-positive cells using a cell analyzer. Cells with an infection efficiency of 10% to 20% were further cultivated and puromycin selection with 1 μg/mL was initiated. As a control, parental Ba/F3 cells were used to show selection status. Selection was considered successful when parental Ba/F3 cells cultures died. To evaluate the transforming potential of EGFR mutations, the growth medium was no longer supplemented with IL-3. Ba/F3 cells harboring the empty vector were used as a control. A switch from IL-3 to EGF was performed for Ba/F3 cells with the wildtype EGFR known for its dependency on EGF ligand. Approximately ten days before conducting the experiments, puromycin was left out. For proliferation assays (data in table 13), Ba/F3 cells were seeded into 96-well plates at 5×10^3 cells/100 μL in growth media. Compounds were added by using a HP D3000 Digital Dispenser. All treatments were performed in technical triplicates. Treated cells were incubated for 72 h at 37° C. with 5% CO2. CellTiter-Glo® Luminescent Cell Viability Assay (Promega) was performed and chemoluminescence was measured by using the multilabel Plate Reader VICTOR X4. The raw data were imported into and analyzed with the Boehringer Ingelheim proprietary software MegaLab (curve fitting based on the program PRISM, GraphPad Inc.).

[3] = test system: Ba/F3 cells driven by EGFR L858R C797S; test: as above; assay type: cell-based, murine; settings: Mus musculus, BaF3, 72 h
Description: as §6

[4] = test system: Ba/F3 cells driven by EGFR L858R T790M C797S; test: as above; assay type: cell-based, murine; settings: Mus musculus, BaF3, 72 h
Description: as §6

[5] = test system: Ba/F3 cells driven by EGFR L858R T790M; test: as above; assay type: cell-based, murine; settings: Mus musculus, BaF3, 72 h
Description: as §6

[6] = test system: Ba/F3 cells driven by EGFR L858R; test: as above; assay type: cell-based, murine; settings: Mus musculus, BaF3, 72 h
Description: as §6

[7] = test system: Ba/F3 cells driven by EGFR del19 C797S; test: as above; assay type: cell-based, murine; settings: Mus musculus, BaF3, 72 h
Description: as §6

[8] = test system: Ba/F3 cells driven by EGFR del19 T790M C797S; test: as above; assay type: cell-based, murine; settings: Mus musculus, BaF3, 72 h
Description: as §6

[9] = test system: Ba/F3 cells driven by EGFR del19 T790M; test: as above; assay type: cell-based, murine; settings: Mus musculus, BaF3, 72 h
Description: as §6

[10] = test system: Ba/F3 cells driven by EGFR del19; test: as above; assay type: cell-based, murine; settings: Mus musculus, read-out: IC50 EGFR del19
Description: as §6

[11] = test system: Ba/F3 cells driven by EGFR wt; test: as above; assay type: cell-based, murine; settings: Mus musculus, BaF3, 72 h
Description: as §6

[12] = target: EGFR (d746-750 T790M C797S) (Homo sapiens (Human), UniProt P00533, C797S/DEL746-750/T790M); test: Biochemical EGFR inhibition assay (poly-GT substrate phosphorylation, TR-FRET LANCE Ultra); settings: 5 μM ATP; read-out: Del_TM_CS (5 μM ATP)
Description: as §1, §2
Test compounds dissolved in DMSO are dispensed onto assay plates (Proxiplate 384 PLUS, white, PerkinElmer; 6008289) using an Access Labcyte Workstation with the Labcyte Echo 55x. […]
5 μL of EGFR enzyme form in assay buffer (50 mM HEPES pH 7.3, 10 mM MgCl2, 1 mM EGTA, 0.01% Tween 20, 2 mM DTT) are dispensed into columns 1-23, than 5 μL of ATP and ULight-poly-GT substrate (PerkinElmer; TRF0100-M) mix in assay buffer is added to all wells (final assay concentration of the ULight-poly-GT substrate 200 nM). […] After additional 60 minutes incubation at room temperature the signal is measured in a PerkinElmer Envision HTS Multilabel Reader using the TR-FRET LANCE Ultra specs of PerkinElmer (used wavelengths: excitation 320 nm, emission 1 665 nm, emission 2 615 nm). […] Negative and positive control values are used for normalization and IC50 values are calculated and analysed using a 4 parametric logistic model. […]

EGFR M+ NSCLC patients = EGFR M+ NSCLC patients treated in 1st line; cited from earlier work
[13] = test system: EGFR M+ T790M-positive patients; settings: 2nd line, previously treated with earlier generation EGFR TKI; cited from earlier work
[14] = 100 μM ATP, read-out: LR_TM_CS (100 μM ATP)
[15] = 100 μM ATP, read-out: wt (100 μM ATP)
[16] = 5 μM ATP, read-out: LR_TM_CS (5 μM ATP)
[17] = 5 μM ATP, read-out: wt (5 μM ATP)

Chain of EGFR wt (P00533 25-1210): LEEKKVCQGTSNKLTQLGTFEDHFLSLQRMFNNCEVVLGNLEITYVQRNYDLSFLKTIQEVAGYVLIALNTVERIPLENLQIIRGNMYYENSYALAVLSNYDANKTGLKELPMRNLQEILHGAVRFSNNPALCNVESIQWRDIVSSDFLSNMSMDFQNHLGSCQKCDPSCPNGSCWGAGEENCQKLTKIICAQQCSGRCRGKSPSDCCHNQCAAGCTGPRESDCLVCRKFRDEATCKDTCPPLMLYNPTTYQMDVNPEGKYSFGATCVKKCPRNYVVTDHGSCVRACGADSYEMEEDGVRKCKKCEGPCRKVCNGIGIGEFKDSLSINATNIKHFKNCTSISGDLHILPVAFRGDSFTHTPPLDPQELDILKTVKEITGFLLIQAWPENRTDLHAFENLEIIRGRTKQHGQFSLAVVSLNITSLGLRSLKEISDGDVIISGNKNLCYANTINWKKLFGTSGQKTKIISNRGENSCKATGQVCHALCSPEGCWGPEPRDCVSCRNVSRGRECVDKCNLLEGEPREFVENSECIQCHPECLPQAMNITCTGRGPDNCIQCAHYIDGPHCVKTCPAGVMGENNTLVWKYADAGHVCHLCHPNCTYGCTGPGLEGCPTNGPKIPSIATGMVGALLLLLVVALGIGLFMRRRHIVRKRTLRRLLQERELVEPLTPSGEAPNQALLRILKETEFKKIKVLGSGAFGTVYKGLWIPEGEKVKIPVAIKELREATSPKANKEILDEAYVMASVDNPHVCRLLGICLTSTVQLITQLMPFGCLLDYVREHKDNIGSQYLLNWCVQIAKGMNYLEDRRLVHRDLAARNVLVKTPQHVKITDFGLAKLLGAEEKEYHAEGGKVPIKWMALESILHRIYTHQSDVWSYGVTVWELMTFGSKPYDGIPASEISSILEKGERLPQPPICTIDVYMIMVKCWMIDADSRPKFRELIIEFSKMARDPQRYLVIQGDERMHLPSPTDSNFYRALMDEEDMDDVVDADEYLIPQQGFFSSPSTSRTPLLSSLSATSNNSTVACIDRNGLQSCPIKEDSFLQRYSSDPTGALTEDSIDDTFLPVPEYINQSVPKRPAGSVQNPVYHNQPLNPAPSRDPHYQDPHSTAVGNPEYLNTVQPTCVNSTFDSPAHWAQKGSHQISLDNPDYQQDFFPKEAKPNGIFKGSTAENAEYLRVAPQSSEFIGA
Chain of EGFR (mutated) 695-1022, T790M, C797S, L858R (P00533 695-1022 T790M/C797S/L858R): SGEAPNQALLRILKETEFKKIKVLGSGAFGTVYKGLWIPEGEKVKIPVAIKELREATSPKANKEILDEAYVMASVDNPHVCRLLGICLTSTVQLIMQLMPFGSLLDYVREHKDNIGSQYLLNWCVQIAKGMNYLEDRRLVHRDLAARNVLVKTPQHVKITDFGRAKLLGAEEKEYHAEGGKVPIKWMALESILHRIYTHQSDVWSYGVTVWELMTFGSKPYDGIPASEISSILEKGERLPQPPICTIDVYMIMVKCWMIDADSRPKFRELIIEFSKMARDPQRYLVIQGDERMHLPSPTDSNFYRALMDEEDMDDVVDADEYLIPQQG
Chain of EGFR del19 T790M C797S (P00533 25-1210 T790M/C797S limits assumed, form open): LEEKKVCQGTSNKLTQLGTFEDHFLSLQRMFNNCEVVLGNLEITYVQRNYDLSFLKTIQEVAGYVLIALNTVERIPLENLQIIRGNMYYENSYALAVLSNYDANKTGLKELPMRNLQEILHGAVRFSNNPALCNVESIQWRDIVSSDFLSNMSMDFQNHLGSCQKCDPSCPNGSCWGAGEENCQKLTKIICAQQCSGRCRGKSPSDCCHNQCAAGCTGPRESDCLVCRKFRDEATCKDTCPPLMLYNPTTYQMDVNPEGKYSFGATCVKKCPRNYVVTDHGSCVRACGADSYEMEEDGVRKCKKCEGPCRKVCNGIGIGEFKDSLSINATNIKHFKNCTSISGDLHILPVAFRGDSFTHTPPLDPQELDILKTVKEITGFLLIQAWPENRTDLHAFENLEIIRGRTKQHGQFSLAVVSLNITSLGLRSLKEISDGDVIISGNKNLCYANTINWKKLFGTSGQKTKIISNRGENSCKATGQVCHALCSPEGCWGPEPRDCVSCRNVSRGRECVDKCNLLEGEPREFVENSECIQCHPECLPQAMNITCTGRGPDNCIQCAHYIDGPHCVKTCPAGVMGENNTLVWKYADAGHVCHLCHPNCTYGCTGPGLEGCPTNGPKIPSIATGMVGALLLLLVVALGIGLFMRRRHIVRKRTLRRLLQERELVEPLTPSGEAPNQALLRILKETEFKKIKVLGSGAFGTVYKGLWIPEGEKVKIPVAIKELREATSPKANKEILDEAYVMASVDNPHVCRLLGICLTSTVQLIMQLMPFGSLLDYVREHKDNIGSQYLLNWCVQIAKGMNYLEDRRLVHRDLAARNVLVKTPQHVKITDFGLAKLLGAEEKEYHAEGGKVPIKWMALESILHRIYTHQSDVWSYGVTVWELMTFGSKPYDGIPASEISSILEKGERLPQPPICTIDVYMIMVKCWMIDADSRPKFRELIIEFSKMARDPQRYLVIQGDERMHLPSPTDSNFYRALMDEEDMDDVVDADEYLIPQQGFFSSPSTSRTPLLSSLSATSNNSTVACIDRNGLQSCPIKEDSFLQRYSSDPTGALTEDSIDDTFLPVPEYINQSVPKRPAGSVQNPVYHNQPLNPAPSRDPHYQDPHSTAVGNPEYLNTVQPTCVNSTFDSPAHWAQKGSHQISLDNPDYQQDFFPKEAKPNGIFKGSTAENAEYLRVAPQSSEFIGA
Chain of EGFR (d746-750 T790M C797S) (P00533 other isoform, or with tags, fused parts or gaps T790M/C797S/del 1-694/del 746-750 limits assumed): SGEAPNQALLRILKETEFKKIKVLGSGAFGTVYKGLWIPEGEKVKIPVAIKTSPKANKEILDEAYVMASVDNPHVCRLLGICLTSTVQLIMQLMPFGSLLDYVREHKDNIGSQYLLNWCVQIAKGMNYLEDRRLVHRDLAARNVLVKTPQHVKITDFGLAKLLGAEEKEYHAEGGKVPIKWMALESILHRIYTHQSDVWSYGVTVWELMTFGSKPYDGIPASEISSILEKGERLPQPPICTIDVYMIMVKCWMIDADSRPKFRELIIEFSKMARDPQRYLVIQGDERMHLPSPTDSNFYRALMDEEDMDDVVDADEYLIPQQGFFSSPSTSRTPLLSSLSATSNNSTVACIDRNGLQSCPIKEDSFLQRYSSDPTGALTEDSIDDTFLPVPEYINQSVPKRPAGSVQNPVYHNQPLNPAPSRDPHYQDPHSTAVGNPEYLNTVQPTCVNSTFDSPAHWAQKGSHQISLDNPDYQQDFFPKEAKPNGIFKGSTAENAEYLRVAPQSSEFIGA

Q: With `Cc1cc2cc(n1)-c1cnn(C)c1OCCCCCN1/C(=N/C2=O)Nc2ccccc21` [Compound I-001] as the molecule, how does the pIC50 (EGFR del19 T790M C797S) read?
A: 8.92

Q: And the pIC50 [1, 14]?
A: 8.22

Q: What about the pIC50 (EGFR wt; [15]) of the same molecule?
A: < 4.00

Q: With `Cc1cc2cc(n1)-c1cnn(C)c1OCCC[C@@H](C)CN1/C(=N/C2=O)Nc2ccccc21` [Compound I-003] as the molecule, how does the pIC50 (EGFR del19 T790M C797S) read?
A: 9.10

Q: What about the pIC50 [1, 14] of the same molecule?
A: 8.52

Q: And the pIC50 (EGFR wt; [15])?
A: 6.05

Q: With `Cc1cc2cc(n1)-c1cnn(C)c1OCCC[C@@H](C)CN1/C(=N/C2=O)Nc2ccc(Br)cc21` [Compound I-005] as the molecule, how does the pIC50 (EGFR del19 T790M C797S) read?
A: 8.40

Q: What about the pIC50 [1, 14] of the same molecule?
A: 7.80

Q: And the pIC50 (EGFR wt; [15])?
A: < 4.00

Q: With `Cc1cc2cc(n1)-c1cnn(C)c1OCCC[C@@H](C)CN1/C(=N/C2=O)Nc2ccc(CN3CCN(C)CC3)cc21` [Compound I-021] as the molecule, how does the pIC50 [2] read?
A: 5.96

Q: What about the pIC50 [3] of the same molecule?
A: 8.40

Q: And the pIC50 [4]?
A: 9.40

Q: And the pIC50 [5]?
A: 9.05

Q: What about the pIC50 [6] of the same molecule?
A: 8.15

Q: And the pIC50 [7]?
A: 9.30

Q: What about the pIC50 [8] of the same molecule?
A: 9.70

Q: What about the pIC50 [9] of the same molecule?
A: 9.52

Q: And the pIC50 ([10]; BaF3, viability, 72 h)?
A: 9.00

Q: And the pIC50 [11]?
A: 6.72

Q: With `Cn1ncc2c1OCCCCCN1/C(=N/C(=O)c3cc(F)nc-2c3)Nc2ccccc21` [Compound I-037] as the molecule, how does the pIC50 (EGFR del19 T790M C797S) read?
A: 8.92

Q: And the pIC50 [12]?
A: 9.70

Q: And the pIC50 [1, 16]?
A: 9.52

Q: What about the pIC50 [1, 14] of the same molecule?
A: 8.52

Q: And the pIC50 (EGFR wt; [17])?
A: 7.89

Q: And the pIC50 (EGFR wt; [15])?
A: < 4.00

Q: With `C[C@@H]1CCCOc2ccccc2-c2cc(ccn2)C(=O)N=C2Nc3ccccc3N2C1` [Compound I-046] as the molecule, how does the pIC50 (EGFR del19 T790M C797S) read?
A: 8.39

Q: What about the pIC50 [12] of the same molecule?
A: 8.89

Q: And the pIC50 [1, 16]?
A: 8.74

Q: What about the pIC50 [1, 14] of the same molecule?
A: 7.80

Q: What about the pIC50 (EGFR wt; [17]) of the same molecule?
A: 7.74

Q: And the pIC50 (EGFR wt; [15])?
A: < 4.00

Q: With `CC(=O)N1CCCCC(n2/c(=N/C(=O)c3ccnc(C)c3)[nH]c3cccc(Cl)c32)C1` (centres unmarked) [Exp. WO 2014/121942, reference compound] as the molecule, how does the pIC50 [2] read?
A: 5.46

Q: What about the pIC50 [4] of the same molecule?
A: 5.66

Q: And the pIC50 [8]?
A: 6.11

Q: What about the pIC50 [11] of the same molecule?
A: 5.55

Q: Which results are given for `COc1cc2ncnc(Nc3ccc(F)c(Cl)c3)c2cc1NC(=O)/C=C/CN1CCCCC1` [dacomitinib]?
A: pIC50 [3]: 8.16; pIC50 [6]: 10.52; pIC50 [7]: 8.80; pIC50 ([10]; BaF3, viability, 72 h): 11.00; pIC50 [11]: 9.19

Q: With `C#Cc1cccc(Nc2ncnc3cc(OCCOC)c(OCCOC)cc23)c1` [erlotinib] as the molecule, how does the objective response rate (EGFR M+ NSCLC patients) read?
A: 60-85%

Q: Which results are given for `Cc1cc(C(=O)Nc2nc3cccc(Cl)c3n2[C@@H]2CCCCN(C(=O)/C=C/CN(C)C)C2)ccn1` [nazartinib]?
A: pIC50 [2]: < 5.30; pIC50 [6]: 8.29; pIC50 ([10]; BaF3, viability, 72 h): 8.96

Q: With `C=CC(=O)Nc1cc(Nc2nccc(-c3cn(C)c4ccccc34)n2)c(OC)cc1N(C)CCN(C)C` [osimertinib] as the molecule, how does the pIC50 ([10]; BaF3, 72 h) read?
A: 9.30

Q: What about the objective response rate (EGFR M+ NSCLC patients) of the same molecule?
A: 60-85%

Q: And the “patients that respond to treatment” value [13]?
A: Approximately 70%
